Experimental data: PMC7764069 (Microorganisms, 2020)
Like-named read-outs stand apart in the source and are kept apart here.

Legend:
[1] = BXA in humans; mimicked by 15 mg/kg BXM BID for 5 days orally in immunocompetent mice; cited from earlier work
[2] = system: A(H1N1)pdm09 virus; set-up: method as in PMID 31837268; conditions: nude mice, BXM 10 mg/kg once daily for 28 days; untreated controls 5 days; cited from earlier work
[3] = system: splenic T, B and NK cells; conditions: for frequency of proliferating B cells: day 4 post infection; for frequency of proliferating B cells / percentage of proliferating T cells: CP 100 mg/kg i.p.

O=C1c2c(O)c(=O)ccn2N([C@@H]2c3ccccc3SCc3c2ccc(F)c3F)[C@@H]2COCCN12 [BXA, baloxavir acid]
target plasma concentration [1]: 6.85 ng/mL

COC(=O)OCOc1c2n(ccc1=O)N([C@@H]1c3ccccc3SCc3c1ccc(F)c3F)[C@@H]1COCCN1C2=O [BXM, baloxavir marboxil]
median survival time [2]: 49 days

O=P1(N(CCCl)CCCl)NCCCO1 (stereo not shown) [CP, cyclophosphamide]
NK proliferative capacity ([3]; following CP administration, day 4 p.i.): no significant decline | frequency of proliferating B cells ([3]; infected animals, without CP 94.7%): 40.7% | percentage of proliferating T cells ([3]; infected mice, day 4 p.i., without CP […]): 72.6% | percentage of proliferating T cells ([3]; uninfected mice, day 4 p.i., without CP 92.2%): 63.1% | frequency of proliferating B cells ([3]; uninfected mice, without CP 82.5%): 36.2%
